pKd: −log10 of the molar value. “Also recorded” adds a separate entry of the source.
What was measured:
[1] = biological target: T1, PPP1R15B-PP1 complex (Homo sapiens, UniProt Q5SWA1); test: SPR steady-state binding to R15B-PP1c holophosphatase on streptavidin chip; details: SPR
T1 construct: 340-698 of PPP1R15B were His-tagged and cloned into pMAL-c5x; made in house; host or cells: R15B fragment: E. coli BL21-Gold; BAP-PP1γ: Sf9 insect cells (baculovirus)
Description: The streptavidin coated surface was activated by 1 min injection with a solution of 50 mM NaOH and 1 M NaCl. Biotin-PP1 was diluted in the running buffer (50 mM Tris pH 7.5, 100 mM NaCl, 0.1 mM EGTA, 1 mM MnCl2, 0.05% Tween 20) and injected at approximately 300 nM concentration directly to streptavidin coated surface for 100 sec or to reach immobilization level of biotin-PP1 corresponding to ˜7000 RU. A blank immobilization was performed for one of the SA sensor chip surface to use as a reference.
With minor deviations, the same procedure and conditions were used in all binding experiments. Small molecules were stored as 50 mM stock solutions in 100% DMSO. Prior to determining binding constants, serial dilutions of either 12 or 8 concentrations of the compounds were prepared in the running buffer in a 96-well plate. […] Then, without regenerating the surface, the compound dilution series was injected onto the surface of the chip Sensorgrams were analyzed using the Biacore T200 evaluation software and the binding constants determined based on a steady-state model. Kinetic experiments are carried out using different concentrations of the compound and their respective equilibrium binding levels determined.
Surface Plasmon Resonance (SPR) was used to measure the binding affinity of compounds to the PPP1R15A/B-PP1 phosphatase complex. Biotin acceptor peptide (BAP) was fused to the N-terminus of PP1γ, which enables the biotinylation of the BAP-tagged protein in Sf9 insect cells. After purification the BAP-PP1γ protein was captured on a streptavidin sensor chip (SA-chip, GE healthcare) to a response level of ˜5.000 RU. Using controlled biotinylation enables orientated and uniform immobilization on the sensor chip surface. The PP1γ was then used to capture PPP1R15A/B and form a holophosphatase complex on the surface of the streptavidin chip. This complex can then be used to test binding of compounds. 10 μM PPP1R15A/B protein concentration was used to form the holophosphatase complex during a 80 s injection. […] After the concentration series (8 or 12 concentrations) is completed the surface is regenerated with 3 M NaCl and we can capture R15A/B again to form a fresh holophosphatase complex to measure a binding of another compound concentration series. Analysing the level of equilibrium binding as a function of concentration gives interaction affinities or steady-state binding affinity (KD).
The streptavidin coated surface was activated by 1 minute injection with a solution of 50 mM NaOH and 1 M NaCl three times at a flow rate of 10 μl/min. bio-GBZ or bio-PP1c was diluted in the running buffer (50 mM Tris pH 7.5, 100 mM NaCl, 0.1 mM EGTA, 0.05% Tween 20, 0.1% DMSO) and injected at approximately 300 nM concentration at a flow rate of 10 μl/min directly to streptavidin coated surface to reach immobilization level of bio-GBZ or bio-PP1c corresponding to ˜200 and 6000 RU, respectively. A blank immobilization was performed for one of the SA sensor chip surface to use as a reference.
With minor deviations, the same procedure and conditions were used in all binding experiments. Small molecules were stored as 50 mM stock solutions in 100% DMSO. Prior to determining binding constants, serial dilutions of either 12 or 8 concentrations of the compounds were prepared in the running buffer in a 96-well plate. […] This was followed by 1 minute stabilization period, to wash off any unspecific binding. Then, without regenerating the surface, the compound dilution series was injected onto the surface of the chip at a flow rate of 30 μl/min for 1 minute, followed by 2 minutes dissociation time. After each dilution series the surface was regenerated using 3 M NaCl for 90 seconds. […] In order to be able to correct for small variations in DMSO concentration between samples, eight solvent samples ranging from 0.06 to 8% DMSO were injected every 50th cycle. The flow cell temperature was 10° C.

[2] = biological target: PP1c (Homo sapiens, UniProt P36873); test: PP1c catalytic activity assay (EnzChek); type: biochemical; details: purified PP1c 30 nM, 30 minutes at 4° C.
Description: Residual activity of PP1c was then measured using the EnzChek Phosphatase Assay Kit (Thermo Fisher Scientific) according to the supplier's instructions.

[3] = test system: HeLa cells; test: Translation rates by 35S-methionine labelling in HeLa cells; type: cell-based, human; details: for protein synthesis / translation rates: basal conditions, 10 μM
Description: Cells (90,000 cells/ml) were plated in 12-well plates, treated as indicated, labelled with 100 μCi/ml ^35S-methionine (Hartmann Analytic) for 10 minutes at 37° C., washed with ice-cold PBS and lysed in 120 μl Laemmli Buffer. Lysates were boiled at 95° C. for 5 minutes, sonicated and resolved on 4-12% Bolt Bis-Tris Plus Gels (Thermo Fisher Scientific). Gels were then stained with InstantBlue (Expedeon) and analyzed by phosphorimaging.

[4] = Guanabenz-like side effects: mouse activity after acute dosing; type: in vivo; details: 10 mg/kg oral gavage, 30 minutes following dosing
Description: To assess whether of a compound of Example 1 had the side effects of Guanabenz, mice (n>3) were gavaged orally with 10 mg/kg of compound or Guanabenz. Their activity was monitored 30 minutes following dosing.
In order to assess the GBZ-like side effects (due to the adrenergic activity) of treatment the motor performance of mice was monitored after a single administration of TST3. To this end mice were treated with TST3 and left in a cage for 60 minutes. Mice behaviour was monitored every 15 minutes. Mice similarly treated with GBZ were used as a control.

Sequence of PP1c (P36873 whole entry): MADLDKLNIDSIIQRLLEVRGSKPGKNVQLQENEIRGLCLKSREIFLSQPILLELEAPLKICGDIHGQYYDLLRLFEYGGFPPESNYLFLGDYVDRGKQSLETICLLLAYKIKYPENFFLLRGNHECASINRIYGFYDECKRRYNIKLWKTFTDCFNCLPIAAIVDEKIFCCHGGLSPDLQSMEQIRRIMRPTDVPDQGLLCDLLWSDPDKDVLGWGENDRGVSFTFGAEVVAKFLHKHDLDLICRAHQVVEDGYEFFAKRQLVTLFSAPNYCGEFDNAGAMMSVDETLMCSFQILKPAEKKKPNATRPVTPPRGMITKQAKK
T1 sequence (Q5SWA1 340-698): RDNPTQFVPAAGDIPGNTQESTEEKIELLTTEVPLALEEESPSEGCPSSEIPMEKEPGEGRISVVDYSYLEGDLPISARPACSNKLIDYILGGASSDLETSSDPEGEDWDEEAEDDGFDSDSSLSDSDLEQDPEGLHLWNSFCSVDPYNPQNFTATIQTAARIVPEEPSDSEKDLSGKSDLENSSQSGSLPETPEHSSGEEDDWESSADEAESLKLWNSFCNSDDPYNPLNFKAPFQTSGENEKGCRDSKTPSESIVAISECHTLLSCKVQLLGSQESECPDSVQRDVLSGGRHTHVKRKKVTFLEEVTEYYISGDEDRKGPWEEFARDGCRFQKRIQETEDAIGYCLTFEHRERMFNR
T1 sequence (P36873 whole entry partner, the tested form may be a part): as the sequence (P36873 whole entry) above

Structure (SMILES) | binding to R15B-PP1c (in words) ([1]; listed as GBZ) | inhibition of PP1c in enzymatic assay [2] | protein synthesis / translation rates [3] | side effects of Guanabenz / activity of mice after dosing [4] | binding to R15B-PP1c (in words) [1] | pKd ([1]; steady-state affinity) | inhibition of PP1c in enzymatic assay ([2]; listed as TST3) | protein synthesis in the presence of GBZ ([3]; TST3+/- GBZ at 10 μM) | protein synthesis / translation rates ([3]; listed as TST3) | side effects of Guanabenz / activity of mice after dosing ([4]; 10 mg/kg)
N=C(N)N/N=C/c1c(Cl)cccc1Cl [Guanabenz, reference compound] | not or weakly; also recorded: no binding was detected | does not inhibit PP1c | did not affect | did not move |  |  |  |  |  | 
[H]/N=C(\N)NN=Cc1cccc(Cl)c1Cl [Example 1, (E)-2-(2,3-dichlorobenzylidene)hydrazine-1-carboximidamide] |  |  |  |  | bound strongly and selectively | 7.48 | does not inhibit PP1c; also recorded: doesn't inhibit PP1 | persistently inhibits protein synthesis; also recorded: rendered persistent | transiently reduces protein synthesis; also recorded: rapidly and transiently decreased | as active as untreated mice; also recorded: devoid of the side effects of Guanabenz; also recorded: does not cause the side effects of Guanabenz
